Assay [1] deals with T1, receptor 5.24 (Carassius auratus, UniProt Q9PW88).
T1 construct: The receptor 5.24 full length cDNA detects 1-2 bands in genomic DNA blots; expressed in transfected cells; host or cells: HEK 293 cells expressing SV40 large T antigen (293-TSA)
T1 sequence (Q9PW88 25-877): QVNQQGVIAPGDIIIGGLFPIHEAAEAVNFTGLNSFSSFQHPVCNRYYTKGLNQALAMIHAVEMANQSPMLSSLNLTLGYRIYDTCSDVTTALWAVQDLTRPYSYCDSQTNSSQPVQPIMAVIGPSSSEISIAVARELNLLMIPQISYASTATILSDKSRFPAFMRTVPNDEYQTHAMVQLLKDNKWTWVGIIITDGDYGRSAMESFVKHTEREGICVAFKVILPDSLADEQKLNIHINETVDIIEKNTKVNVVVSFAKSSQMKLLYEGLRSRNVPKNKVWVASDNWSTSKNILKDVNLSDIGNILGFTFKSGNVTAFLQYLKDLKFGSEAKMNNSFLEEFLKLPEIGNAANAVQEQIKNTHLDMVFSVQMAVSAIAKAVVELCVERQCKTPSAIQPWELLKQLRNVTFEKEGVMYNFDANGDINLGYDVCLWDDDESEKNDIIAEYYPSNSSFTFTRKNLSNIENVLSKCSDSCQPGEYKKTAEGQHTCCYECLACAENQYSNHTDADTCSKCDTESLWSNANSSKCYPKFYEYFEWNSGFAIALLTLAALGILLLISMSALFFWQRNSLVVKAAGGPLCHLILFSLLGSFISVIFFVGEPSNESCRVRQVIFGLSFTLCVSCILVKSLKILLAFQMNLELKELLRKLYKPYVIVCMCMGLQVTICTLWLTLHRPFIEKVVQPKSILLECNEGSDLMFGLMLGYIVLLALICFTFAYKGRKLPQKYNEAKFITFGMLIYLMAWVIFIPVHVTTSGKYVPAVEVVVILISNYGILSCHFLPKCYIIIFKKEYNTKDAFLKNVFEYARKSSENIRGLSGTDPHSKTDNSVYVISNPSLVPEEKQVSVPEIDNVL
Put plainly: 3H-L-arginine saturation binding to membranes of receptor 5.24-expressing HEK 293 cells. On the set-up: species or system goldfish. To be noted: summary statement; read-out: Kd (high affinity interaction). An excerpt:
High-Affinity Binding of Radiolabeled L-Arginine to the Cloned Goldfish Odorant Receptor. To determine the affinity of the cloned goldfish amino acid receptor for basic amino acids, we characterized the ligand-receptor interaction by radiolabeled ligand binding to receptors expressed in mammalian cells. Human embryonic kidney (HEK) 293 cells were transfected with expression plasmids containing the receptor 5.24 cDNA insert. […] We next wished to determine what second messenger pathway receptor 5.24 couples to in HEK 293 cells. Control cells or cells expressing receptor 5.24 were exposed to varying concentrations of arginine and assayed for the accumulation of IP3 and cAMP.
Mammalian Cell Culture and DNA Transfections. For cell transfections, the receptor 5.24 cDNA insert was subcloned into two expression vectors: CMVI, which utilizes a human cytomegalovirus (CMV) immediate early promoter-enhancer plus the CMV intron A sequence to drive expression, and 608RX-2.2L, which is similar to CMVI except the cDNA insert is followed by an internal ribosome entry site (IRES)—enhanced green fluorescent protein (EGFP) coding sequence; 608RX-2.2L also contains a puromycin resistance gene. For transient assays, HEK 293 cells expressing the SV40 large T antigen (293 TSA cells) were transfected with the CMVI-receptor 5.24 or CMVI control plasmid using lipofectamine (Life Technologies) and harvested at 48 hours for membrane preparations. For stable cell lines, 293-TSA cells were transfected with the 608RX-2.2L-receptor 5.24 plasmid or a control 608RX-2.2L plasmid and selected in puromycin. Colonies showing high levels of EGFP fluorescence (as judged by epifluorescence microscopy) were picked, expanded, and screened for 3H-L-arginine binding (see below). In five independent receptor 5.24-transfected stable cell lines, receptor densities (Rt) varied between 0.5 and 6.0 pmol L-arginine binding sites/mg membrane protein. […] All competition binding assays and signal transduction studies were performed using the stable cell line 5.24-20 (Rt=2.0 pmol /mg) and a control cell line (2.2-9) stably transfected with vector alone (Rt=0.03 pmol/mg).
(§1) Membrane Preparations and Ligand Binding Assays. Membranes for ligand binding assays were prepared by washing confluent cells three times with phosphate buffered saline (PBS), detaching cells with a PBS-based enzyme-free dissociation solution, and resuspending cells in ice-cold 5.0 mM Hepes, pH 7.4, 1.0 mM EDTA, 1.0 μg/ml leupeptin, 0.5 mM PMSF. All subsequent manipulations were performed on ice. After a 30 min incubation, the cell suspension was homogenized and centrifuged at 100,000×g for 30 min. Cell membrane pellets were washed twice by resuspension and centrifugation in binding buffer (20 mM Hepes, pH 7.4, 1.0 mM EDTA, 2.0 mM MgCl2, 1.0 μg/ml leupeptin, 0.5 mM PMSF), resuspended in binding buffer, and frozen at −80° C.
Saturation binding assays were performed using 20-25 μg of membrane protein in a final volume of 100 μl binding buffer and increasing concentrations of [2,3-3H] L-arginine (specific activity=40 Ci/mmol; Dupont NEN). Non-specific binding was measured in the presence of 500 μM unlabeled L-arginine. Competition assays were performed with 500 nM [2,3-3H] […] Filters were washed three times with 4.0 ml ice cold 20 mM Hepes, pH 7.4, and retained radioactivity was measured by scintillation counting. […] Data were analyzed by nonlinear curve fitting using Origin software (Microcal). […]

Assay [2] deals with T1, receptor 5.24. The assay is described as follows: biochemical. The class given is binding. How it is done:
Structure-Activity Properties of Compounds Interacting with the Cloned Goldfish Amino Acid Odorant Receptor. An understanding of how odorant receptors are used to encode olfactory information requires a characterization of the odorant specificities of individual receptor types. We therefore wished to determine the relative specificity of receptor 5.24 for structurally related ligands. […] Briefly, 3H-arginine binding to membranes from receptor 5.24-expressing HEK 293 cells was assayed in the absence or presence of varying concentrations of competitor ligands.
Mammalian Cell Culture and DNA Transfections. For cell transfections, the receptor 5.24 cDNA insert was subcloned into two expression vectors: CMVI, which utilizes a human cytomegalovirus (CMV) immediate early promoter-enhancer plus the CMV intron A sequence to drive expression, and 608RX-2.2L, which is similar to CMVI except the cDNA insert is followed by an internal ribosome entry site (IRES)—enhanced green fluorescent protein (EGFP) coding sequence; 608RX-2.2L also contains a puromycin resistance gene. For transient assays, HEK 293 cells expressing the SV40 large T antigen (293 TSA cells) were transfected with the CMVI-receptor 5.24 or CMVI control plasmid using lipofectamine (Life Technologies) and harvested at 48 hours for membrane preparations. For stable cell lines, 293-TSA cells were transfected with the 608RX-2.2L-receptor 5.24 plasmid or a control 608RX-2.2L plasmid and selected in puromycin. Colonies showing high levels of EGFP fluorescence (as judged by epifluorescence microscopy) were picked, expanded, and screened for 3H-L-arginine binding (see below).
as §1
Saturation binding assays were performed using 20-25 μg of membrane protein in a final volume of 100 μl binding buffer and increasing concentrations of [2,3-3H] L-arginine (specific activity=40 Ci/mmol; Dupont NEN). Non-specific binding was measured in the presence of 500 μM unlabeled L-arginine. Competition assays were performed with 500 nM [2,3-3H] L-arginine and increasing concentrations of competitor ligands. All incubations were performed at 4° C. for 60 min and terminated by rapid filtration through Whatman GF/C filters pretreated with ice cold 0.1% polyethyleneimine. Filters were washed three times with 4.0 ml ice cold 20 mM Hepes, pH 7.4, and retained radioactivity was measured by scintillation counting.

The target in assay [3] is T1, receptor 5.24. Put plainly: evoked currents in Xenopus oocytes expressing receptor 5.24 (two-electrode voltage clamp). The class given is cell-based, goldfish. An excerpt:
Identification by Expression Cloning of a cDNA Encoding a Goldfish Odorant Receptor. RNA was synthesized from pools of goldfish olfactory cDNA clones (900 individual clones per pool) and injected into Xenopus oocytes together with synthetic RNAs encoding GIRK and Gaolf. Oocytes were then screened for responses upon exposure to odorant cocktails containing amino acids, bile acids, or sex pheromones. […] The response to amino acids was biphasic, beginning with an oscillating inward current above the basal inward K+ current, followed by a decline in inward current to below the basal level. Such a biphasic effect is thought to be caused by Gaq-mediated activation of phospholipase C (responsible for the intial inward current via IP3) and protein kinase C (leading to suppression of the K+ current through phosphorylation of GIRK channel subunits) (Sharon et al., 1997).
Iterative subdivision of pool 19 by sib-selection allowed the isolation of a single clone encoding a receptor, designated receptor 5.24.
Oocytes were removed from anesthetized Xenopus laevis and treated with collagenase. Forty nanograms of cRNA from each cDNA library pool (˜40 pg cRNA/clone) was injected per oocyte, together with cRNAs encoding Gaolf and the GIRK subunits Kir 3.1 and Kir 3.4 (˜30 pg each). Approximately 30 pools were assayed before these primary screens were halted. Injected oocytes were incubated at 17° C. for over 80 hours prior to electrophysiological recordings. Recordings were performed by two-electrode voltage clamping using an Axoclamp-2A amplifier (Axon Instruments) or a Dagan CA-1 amplifier (Dagan Corp.). Data acquisition and analysis were performed using pCLAMP software (Axon Instruments). Membrane potential was held at −80 mV. For trials involving GIRK, oocytes were first perfused with Na-MBSH (88 mM NaCl, 1 mM KCl, 2.4 mM NaHCO3, 10 mM Hepes, pH 7.5, 0.82 mM MgSO4[7H2O], 0.33 mM Ca[NO3]2[4H2O], 0.41 mM CaCl2[2H2O]), and then switched into K-MBSH, which contains elevated K+ (88 mM KCl, 1 mM NaCl) until the basal current had stabilized (˜45 seconds) before challenging with agonist. Recordings on oocytes injected with receptor 5.24 in the absence of Gaolf and/or GIRK subunits were performed in Na-MBSH. Oocytes were exposed to solutions containing different agonists by switching bathing solutions with an 8 channel valve (Hamilton).
On the technique in general: Two-electrode voltage clamp holds a large cell at a set potential and records current.

The subject of another assay is salmon olfactory neurons. To be noted: 0.01-10 μM, isolated salmon olfactory neurons; cited from earlier work.
Assay [4] relates to goldfish olfactory neurons. Put plainly: multi-unit recordings from the goldfish olfactory epithelium. The class given is cell-based. To be noted: 0.1 μM.

Like-named read-outs stand apart in the source and are kept apart here.

A word on the Kd: it is the free concentration of one partner at which half of the binding sites on the other are occupied at equilibrium, for simple one-to-one binding. What is called Ki is a measure of affinity in units of concentration, obtained from inhibition or displacement. With `NCCCC[C@H](N)C(=O)O` [L-Lysine], on receptor 5.24 [1], the Kd is roughly 100 nM. In addition, on receptor 5.24 [2], the Ki turned out to be 90 nM. In addition, the “binding to receptor 5.24, in words” value on receptor 5.24 [2] (comparative binding studies) was “highest affinities”.
Regarding `N[C@@H](CO)C(=O)O` [L-Serine], at receptor 5.24 [3], the “activation of receptor 5.24 (evoked currents), in words” value was “smaller responses”. For the same compound, in the assay with salmon olfactory neurons, the “fraction of cells sensitive” value is roughly 60%. On receptor 5.24 [2] (displacement of 3H-L-arginine from membranes of HEK 293 cells expressing receptor 5.24, read-out: Ki (binding affinity)), the inhibition constant (Ki) worked out at 2800 nM.
For `CCCCCC(=O)/C=C/[C@@H]1[C@@H](C/C=C\CCCC(=O)O)[C@@H](O)C[C@H]1O` [1 5-ketoprostaglandin F2a], the locations that responded in assay [4] is listed as 25 out of 65.
